# In PMC11277489, “Novel Piperazine Derivatives of Vindoline as Anticancer Agents” (International Journal of Molecular Sciences, 2024):
# Test system: SN12C
# Assay: NCI60 five-dose screen, Renal Cancer
# Assay type: cell-based
# Conditions: Homo sapiens, Renal Cancer, five-dose screen, read-out: GI50
row,SMILES,GI50 [µM]
1,CCC12C=CCN3CCC4(c5cc(NC(=O)CN6CCN(c7ccc(C(F)(F)F)cc7)CC6)c(OC)cc5N(C)C4C(O)(C(=O)OC)C1OC(C)=O)C32 (stereo not shown) [Compound 17],7.76

# Test system: DU-145
# Assay: NCI60 five-dose screen, Prostate Cancer
# Assay type: cell-based
# Conditions: Homo sapiens; DU-145, Prostate Cancer; five-dose screen; read-out: GI50
row,SMILES,GI50 [µM]
1,CCC12C=CCN3CCC4(c5cc(NC(=O)CN6CCN(c7ccc(C(F)(F)F)cc7)CC6)c(OC)cc5N(C)C4C(O)(C(=O)OC)C1OC(C)=O)C32 (stereo not shown) [Compound 17],6.46

# Test system: SK-OV-3
# Assay: NCI60 five-dose screen, Ovarian Cancer
# Assay type: cell-based
# Conditions: Homo sapiens; SK-OV-3, Ovarian Cancer; five-dose screen; read-out: GI50
row,SMILES,GI50 [µM]
1,CCC12C=CCN3CCC4(c5cc(NC(=O)CN6CCN(c7ccc(C(F)(F)F)cc7)CC6)c(OC)cc5N(C)C4C(O)(C(=O)OC)C1OC(C)=O)C32 (stereo not shown) [Compound 17],3.31

# Test system: UACC-62
# Assay: NCI60 five-dose screen, Melanoma
# Assay type: cell-based
# Conditions: Homo sapiens; UACC-62, Melanoma; five-dose screen; read-out: GI50
row,SMILES,GI50 [µM]
1,CCC12C=CCN3CCC4(c5cc(NC(=O)CN6CCN(c7ccc(C(F)(F)F)cc7)CC6)c(OC)cc5N(C)C4C(O)(C(=O)OC)C1OC(C)=O)C32 (stereo not shown) [Compound 17],10.2

# Test system: UO-31
# Assay: NCI60 five-dose screen, Renal Cancer
# Assay type: cell-based
# Conditions: Homo sapiens; UO-31, Renal Cancer; five-dose screen; read-out: GI50
row,SMILES,GI50 [µM]
1,CCC12C=CCN3CCC4(c5cc(NC(=O)CN6CCN(c7ccc(C(F)(F)F)cc7)CC6)c(OC)cc5N(C)C4C(O)(C(=O)OC)C1OC(C)=O)C32 (stereo not shown) [Compound 17],5.13

# Test system: NCI-H23
# Assay: NCI60 five-dose screen, Non-small Cell Lung Cancer
# Assay type: cell-based
# Conditions: Homo sapiens; NCI-H23, Non-small Cell Lung Cancer; five-dose screen; read-out: GI50
row,SMILES,GI50 [µM]
1,CCC12C=CCN3CCC4(c5cc(NC(=O)CN6CCN(c7ccc(C(F)(F)F)cc7)CC6)c(OC)cc5N(C)C4C(O)(C(=O)OC)C1OC(C)=O)C32 (stereo not shown) [Compound 17],10.7

# Test system: MALME-3M
# Assay: NCI60 five-dose screen, Melanoma
# Assay type: cell-based
# Conditions: Homo sapiens; MALME-3M, Melanoma; five-dose screen; read-out: GI50
row,SMILES,GI50 [µM]
1,CCC12C=CCN3CCC4(c5cc(NC(=O)CN6CCN(c7ccc(C(F)(F)F)cc7)CC6)c(OC)cc5N(C)C4C(O)(C(=O)OC)C1OC(C)=O)C32 (stereo not shown) [Compound 17],14.8

# Test system: SF-295
# Assay: NCI60 five-dose screen, CNS Cancer
# Assay type: cell-based
# Conditions: Homo sapiens; SF-295, CNS Cancer; five-dose screen; read-out: GI50
row,SMILES,GI50 [µM]
1,CCC12C=CCN3CCC4(c5cc(NC(=O)CN6CCN(c7ccc(C(F)(F)F)cc7)CC6)c(OC)cc5N(C)C4C(O)(C(=O)OC)C1OC(C)=O)C32 (stereo not shown) [Compound 17],3.55

# Test system: 60 human tumor cell lines (NCI60)
# Assay: NCI60 five-dose screen, whole panel and sub-panel means
# Assay type: cell-based
# Conditions: Homo sapiens, 60 cell, mean over all 60 cell lines; read-out: GI50 Mean
row,SMILES,GI50 [µM]
1,CCC12C=CCN3CCC4(c5cc(NC(=O)CN6CCN(c7ccc(C(F)(F)F)cc7)CC6)c(OC)cc5N(C)C4C(O)(C(=O)OC)C1OC(C)=O)C32 (stereo not shown) [Compound 17],5.53

# Same assay, conditions: Homo sapiens, mean over Breast Cancer panel; read-out: GI50 Mean
row,SMILES,GI50 [µM]
1,CCC12C=CCN3CCC4(c5cc(NC(=O)CN6CCN(c7ccc(C(F)(F)F)cc7)CC6)c(OC)cc5N(C)C4C(O)(C(=O)OC)C1OC(C)=O)C32 (stereo not shown) [Compound 17],6.11

# Same assay, conditions: Homo sapiens, mean over CNS Cancer panel; read-out: GI50 Mean
row,SMILES,GI50 [µM]
1,CCC12C=CCN3CCC4(c5cc(NC(=O)CN6CCN(c7ccc(C(F)(F)F)cc7)CC6)c(OC)cc5N(C)C4C(O)(C(=O)OC)C1OC(C)=O)C32 (stereo not shown) [Compound 17],4.01

# Same assay, conditions: Homo sapiens, mean over Colon Cancer panel; read-out: GI50 Mean
row,SMILES,GI50 [µM]
1,CCC12C=CCN3CCC4(c5cc(NC(=O)CN6CCN(c7ccc(C(F)(F)F)cc7)CC6)c(OC)cc5N(C)C4C(O)(C(=O)OC)C1OC(C)=O)C32 (stereo not shown) [Compound 17],4.31

# Same assay, conditions: Homo sapiens, mean over Leukemia panel; read-out: GI50 Mean
row,SMILES,GI50 [µM]
1,CCC12C=CCN3CCC4(c5cc(NC(=O)CN6CCN(c7ccc(C(F)(F)F)cc7)CC6)c(OC)cc5N(C)C4C(O)(C(=O)OC)C1OC(C)=O)C32 (stereo not shown) [Compound 17],2.75

# Same assay, conditions: Homo sapiens, mean over Melanoma panel; read-out: GI50 Mean
row,SMILES,GI50 [µM]
1,CCC12C=CCN3CCC4(c5cc(NC(=O)CN6CCN(c7ccc(C(F)(F)F)cc7)CC6)c(OC)cc5N(C)C4C(O)(C(=O)OC)C1OC(C)=O)C32 (stereo not shown) [Compound 17],5.89

# Same assay, conditions: Homo sapiens, mean over Non-small Cell Lung Cancer panel; read-out: GI50 Mean
row,SMILES,GI50 [µM]
1,CCC12C=CCN3CCC4(c5cc(NC(=O)CN6CCN(c7ccc(C(F)(F)F)cc7)CC6)c(OC)cc5N(C)C4C(O)(C(=O)OC)C1OC(C)=O)C32 (stereo not shown) [Compound 17],7.29

# Same assay, conditions: Homo sapiens, mean over Ovarian Cancer panel; read-out: GI50 Mean
row,SMILES,GI50 [µM]
1,CCC12C=CCN3CCC4(c5cc(NC(=O)CN6CCN(c7ccc(C(F)(F)F)cc7)CC6)c(OC)cc5N(C)C4C(O)(C(=O)OC)C1OC(C)=O)C32 (stereo not shown) [Compound 17],6.48

# Same assay, conditions: Homo sapiens, mean over Prostate Cancer panel; read-out: GI50 Mean
row,SMILES,GI50 [µM]
1,CCC12C=CCN3CCC4(c5cc(NC(=O)CN6CCN(c7ccc(C(F)(F)F)cc7)CC6)c(OC)cc5N(C)C4C(O)(C(=O)OC)C1OC(C)=O)C32 (stereo not shown) [Compound 17],4.88

# Same assay, conditions: Homo sapiens, mean over Renal Cancer panel; read-out: GI50 Mean
row,SMILES,GI50 [µM]
1,CCC12C=CCN3CCC4(c5cc(NC(=O)CN6CCN(c7ccc(C(F)(F)F)cc7)CC6)c(OC)cc5N(C)C4C(O)(C(=O)OC)C1OC(C)=O)C32 (stereo not shown) [Compound 17],6.01

# Test system: HCT-116
# Assay: NCI60 five-dose screen, Colon Cancer
# Assay type: cell-based
# Conditions: Homo sapiens; HCT-116, Colon Cancer; five-dose screen; read-out: GI50
row,SMILES,GI50 [µM]
1,CCC12C=CCN3CCC4(c5cc(NC(=O)CN6CCN(c7ccc(C(F)(F)F)cc7)CC6)c(OC)cc5N(C)C4C(O)(C(=O)OC)C1OC(C)=O)C32 (stereo not shown) [Compound 17],3.72

# Test system: 786–0
# Assay: NCI60 five-dose screen, Renal Cancer
# Assay type: cell-based
# Conditions: Homo sapiens; 786–0, Renal Cancer; five-dose screen; read-out: GI50
row,SMILES,GI50 [µM]
1,CCC12C=CCN3CCC4(c5cc(NC(=O)CN6CCN(c7ccc(C(F)(F)F)cc7)CC6)c(OC)cc5N(C)C4C(O)(C(=O)OC)C1OC(C)=O)C32 (stereo not shown) [Compound 17],6.31

# Test system: A498
# Assay: NCI60 five-dose screen, Renal Cancer
# Assay type: cell-based
# Conditions: Homo sapiens; A498, Renal Cancer; five-dose screen; read-out: GI50
row,SMILES,GI50 [µM]
1,CCC12C=CCN3CCC4(c5cc(NC(=O)CN6CCN(c7ccc(C(F)(F)F)cc7)CC6)c(OC)cc5N(C)C4C(O)(C(=O)OC)C1OC(C)=O)C32 (stereo not shown) [Compound 17],10.7

# Test system: COLO 205
# Assay: NCI60 five-dose screen, Colon Cancer
# Assay type: cell-based
# Conditions: Homo sapiens; COLO 205, Colon Cancer; five-dose screen; read-out: GI50
row,SMILES,GI50 [µM]
1,CCC12C=CCN3CCC4(c5cc(NC(=O)CN6CCN(c7ccc(C(F)(F)F)cc7)CC6)c(OC)cc5N(C)C4C(O)(C(=O)OC)C1OC(C)=O)C32 (stereo not shown) [Compound 17],3.24
